Test results: patent US8802597B2, “Herbicidal pyrimidines” (E I du Pont de Nemours and Company, priority 2003, dated 2014)

Key:
Format in all cases: in vivo
[1] = test system: Russian thistle (SASKR; Salsola kali); assay: Test I mixtures of compound 9 with metsulfuron-methyl and chlorsulfuron-metsulfuron-methyl (5:1); conditions: applied alone
Text: (§1) This test evaluated the effect of mixtures of compound 9 with metsulfuron-methyl and with a 5:1 by weight combination of chlorsulfuron and metsulfuron-methyl on several plant species. Seeds of test plants consisting of wheat (TRZAW; Triticum aestivum), wild buckwheat, (POLCO; Polygonum convolvulus), redroot pigweed (AMARE; Amaranthus retroflexus), wild mustard (SINAR; Sinapis arvensis), catchweed bedstraw (GALAP; Galium aparine), Russian thistle (SASKR; Salsola kali), common chickweed (STEME; Stellaria media), kochia (KCHSC; Kochia scoparia), and lambsquarters (CHEAL; Chenopodium album) were planted into a blend of loam soil and sand. Plants were grown in a greenhouse using supplemental lighting to maintain a photoperiod of about 14 hours; daytime and nighttime temperatures were about 23° C. and 16° C., respectively. Balanced fertilizer was applied through the watering system. The plants were grown for 10 to 23 days so that at time of treatment the plants ranged from 2- to 8-leaf stage. Treatments consisted of Compound 9, metsulfuron-methyl, and chlorsulfuron-metsulfuron-methyl (5:1) alone and in combination. The treatments were formulated in a non-phytotoxic solvent mixture which included a surfactant and applied as a foliage spray using a volume of 280-458 L/ha. Each treatment was replicated three times. […] Treated plants and controls were maintained in the greenhouse and watered as needed with care to not wet the foliage for the first 24 hours after treatment. The effects on the plants approximately 17 days after treatment were visually compared to untreated controls. Plant response ratings were calculated as the means of the three replicates, based on a scale of 0 to 100 where 0 is no effect and 100 is complete control. Colby's Equation was used to determine the herbicidal effects expected from the mixtures.

[2] = test system: redroot pigweed (AMARE; Amaranthus retroflexus); assay: as above; conditions: applied alone
Text: as §1

[3] = test system: common chickweed (STEME; Stellaria media); assay: as above; conditions: applied alone
Text: as §1

[4] = test system: lambsquarters (CHEAL; Chenopodium album); assay: as above; conditions: applied alone
Text: as §1

[5] = test system: kochia (KCHSC; Kochia scoparia); assay: as above; conditions: applied alone
Text: as §1

[6] = test system: catchweed bedstraw (GALAP; Galium aparine); assay: as above; conditions: applied alone
Text: as §1

[7] = test system: wild mustard (SINAR; Sinapis arvensis); assay: as above; conditions: applied alone
Text: as §1

[8] = test system: wheat (TRZAW; Triticum aestivum); assay: as above; conditions: Metsulfuron-Methyl series, applied alone
Text: as §1

[9] = test system: wild buckwheat (POLCO; Polygonum convolvulus); assay: as above; conditions: applied alone
Text: as §1

[10] = test system: daisy fleabane (Erigeron spp.); assay: Test L field study, Compound 1 and nicosulfuron; conditions: Nicosulfuron 18 g a.i./ha, approximately 56 days after treatment
Text: (§2) This field study included treatments that consisted of Compound 1 and nicosulfuron alone and in combination on Canada thistle (Cirsium arvense) and daisy fleabane (Erigeron spp.). The plants ranged from 20 to 30 cm in height at the time of application during the month of May in the vicinity of Newark, Del. Compound 1 was formulated as a wettable powder containing 25% active ingredient by weight. Nicosulfuron was in the form of Accent® Herbicide, a water-dispersible granule formulation containing 75% active ingredient by weight. The formulations were dispersed in water in the sprayer tank before treatment. The treatments were made using a backpack sprayer calibrated to deliver 24 gallons per acre (224 L per hectare) to a 10 ft×30 ft (3 m×9 m) plot. Each treatment was replicated two times. The effects on the plants approximately 56 days after treatment were visually compared to untreated controls. Plant response ratings were calculated as the means of the two replicates, based on a scale of 0 to 100 where 0 is no effect and 100 is complete control. Colby's Equation was used to determine the herbicidal effects expected from the mixture.

[11] = test system: Canada thistle (Cirsium arvense); assay: Test L field study, Compound 1 and nicosulfuron; conditions: Nicosulfuron 18 g a.i./ha, approximately 56 days after treatment
Text: as §2

Row | Structure (SMILES) | SASKR Obsd. (observed effect) ([1]; 4 g a.i./ha) | SASKR Obsd. (observed effect) ([1]; 8 g a.i./ha) | AMARE Obsd. (observed effect) ([2]; 4 g a.i./ha) | AMARE Obsd. (observed effect) ([2]; 8 g a.i./ha) | STEME Obsd. (observed effect) ([3]; 4 g a.i./ha) | STEME Obsd. (observed effect) ([3]; 8 g a.i./ha) | CHEAL Obsd. (observed effect) ([4]; 4 g a.i./ha) | CHEAL Obsd. (observed effect) ([4]; 8 g a.i./ha) | KCHSC Obsd. (observed effect) ([5]; 4 g a.i./ha) | KCHSC Obsd. (observed effect) ([5]; 8 g a.i./ha) | GALAP Obsd. (observed effect) ([6]; 4 g a.i./ha) | GALAP Obsd. (observed effect) ([6]; 8 g a.i./ha) | SINAR Obsd. (observed effect) ([7]; 4 g a.i./ha) | SINAR Obsd. (observed effect) ([7]; 8 g a.i./ha) | TRZAW Obsd. (observed effect) ([8]; 4 g a.i./ha) | TRZAW Obsd. (observed effect) ([8]; 8 g a.i./ha) | POLCO Obsd. (observed effect) ([9]; 4 g a.i./ha) | POLCO Obsd. (observed effect) ([9]; 8 g a.i./ha) | Obsd. observed effect (0 to 100 scale) [10] | Obsd. observed effect (0 to 100 scale) [11]
1 | COC(=O)c1ccccc1S(=O)(=O)NC(=O)Nc1nc(C)nc(OC)n1 [Metsulfuron-Methyl] | 0 | 0 | 0 | 0 | 0 | 0 | 0 | 0 | 0 | 0 | 0 | 0 | 0 | 0 | 0 | 0 | 0 | 0 |  | 
2 | COc1cc(OC)nc(NC(=O)NS(=O)(=O)c2ncccc2C(=O)N(C)C)n1 [Nicosulfuron, nicosulfuron, reference compound] |  |  |  |  |  |  |  |  |  |  |  |  |  |  |  |  |  |  | 28 | 15
